Counter-ions that a name gives are not always drawn.

This test deals with T1, recombinant human c-MET kinase enzyme domain (Homo sapiens, UniProt P08581).
T1 construct: Recombinant c-Met kinase domain (amino acids 960-1390); His (N); made in house; host or cells: baculovirus expression system (insect cells; SF21 is named only for the alternative format)
T1 sequence (P08581 960-1390): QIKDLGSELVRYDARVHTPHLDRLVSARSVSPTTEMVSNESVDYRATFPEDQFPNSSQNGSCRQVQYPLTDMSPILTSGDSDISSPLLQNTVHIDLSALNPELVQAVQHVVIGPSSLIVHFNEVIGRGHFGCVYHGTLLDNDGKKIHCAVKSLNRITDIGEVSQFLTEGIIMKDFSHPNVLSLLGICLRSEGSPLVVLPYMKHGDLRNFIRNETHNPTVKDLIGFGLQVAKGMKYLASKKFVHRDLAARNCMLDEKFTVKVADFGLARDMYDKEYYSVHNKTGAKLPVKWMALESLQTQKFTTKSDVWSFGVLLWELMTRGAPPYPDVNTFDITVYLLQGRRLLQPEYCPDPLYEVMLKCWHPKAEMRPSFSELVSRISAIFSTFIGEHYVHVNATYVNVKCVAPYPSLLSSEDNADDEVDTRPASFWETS
In words: c-MET receptor tyrosine kinase Homogeneous Time Resolved Fluorescence assay (HTRF). The note with it: Biological Example 1 and/or Biological Example 2. In kind it is biochemical. An excerpt: Recombinant c-Met kinase domain (amino acids 960-1390) was produced in a baculovirus expression vector as an N-terminal His-tagged fusion protein and purified on a NiNTA column. The resulting purified enzyme was then used in the following c-Met Homogeneous Time Resolved Fluorescence assay (HTRF) to find compounds of the invention and to perform initial activity determinations. Specifically, this assay measures the ability of compounds of the invention to inhibit the phosphorylation of a randomly synthesized, biotinylated heterocopolymeric polypeptide composed of glutamic acid and tyrosine, with an average length of 100 aa. The assay analyzes the amount of phosphorylated polypeptide produced.
The enzymatic phosphorylation of the biotinylated heterocopolymeric polypeptide was performed in a black 384-well plate at ambient temperature in a reaction mixture containing 50 mM HEPES (pH 7.4), 5 mM MgCl2, 5 mM MnCl2, 0.01% Tween-20, and 2 mM DTT, […] recombinant human c-MET kinase enzyme domain, 37 nM biotinylated heterocopolymeric polypeptide composed of glutamic acid and tyrosine, 20 μM ATP, 1% DMSO in the absence or presence of a compound of the invention. The reaction was stopped after a 20-minute incubation by the addition of 80 mM EDTA.
The formation of phosphorylated heterocopolymeric, biotinylated polypeptide was quantified with the HTRF assay technology using an anti-phosphotyrosine antibody, PT66, conjugated to europium cryptate, mixed with a streptavidin-XL665 conjugate. Reduced or inhibited phosphorylation of the heterocopolymeric, biotinylated polypeptide prevents the anti-phosphotyrosine antibody from binding to the peptide, resulting in a loss of energy transfer to the streptavidin-XL665 conjugate.
Following the 384-well enzymatic phosphorylation reaction outlined above, the detection of phosphorylated heterocopolymeric, biotinylated polypeptide was performed by dilution of the stopped reaction mixture 2-fold with 50 mM HEPES (pH 7.0), 500 mM KF, 0.1% BSA, streptavidin-XL665 (20 nM), and anti-phosphotyrosine antibody PT66-crypate conjugate (6.4 ng/well) and incubation for four hours at ambient temperature. Plates were read in an Envision plate reader (PerkinElmer Life and Analytical Sciences, Inc., MA) simultaneously at 620 nm and 665 nm to obtain signal ratios of 665 nm/620 nm. Results of energy transfer were expressed as signal ratios of 665 nm/620 nm. Negative controls were samples without recombinant c-MET or c-MET treated with 100 mM EDTA.
For determination of IC50 values of particular compounds of the invention, eight serially diluted compound concentrations (at 1:3.16 dilution) were used in the assay. Controls without a compound of the invention or with a reference compound were run in parallel in the same assay plate.
Background: TR-FRET usually uses a lanthanide donor and a delayed reading to cut background.
On to `CC1=C(C#N)C(c2ccc3[nH]nc(NCC4CCNCC4)c3c2)C(C#N)=C(C)N1` [compound 133, 1,4-dihydro-2,6-dimethyl-4-[3-[(4-piperidinylmethyl)amino]-1H-indazol-5-yl]-3,5-pyridinedicarbonitrile], for which the IC50 (as a rule, the concentration that gives 50% inhibition) is below 0.1 µM. For `CC1=C(C#N)C(c2ccc3[nH]nc(NCc4ccc(C(=O)N5CCC(O)C5)cc4)c3c2)C(C#N)=C(C)N1` (centres unmarked) [compound 168, 1,4-dihydro-4-[3-[[[4-[(3-hydroxy-1-pyrrolidinyl)carbonyl]phenyl]methyl]amino]-1H-indazol-5-yl]-2,6-dimethyl-3,5-pyridinedicarbonitrile], the IC50 is below 0.1 µM. To `CC1=C(C#N)C(c2ccc3[nH]nc(NCCN4CCOCC4)c3c2)C(C#N)=C(C)N1` [compound 307, 1,4-dihydro-2,6-dimethyl-4-[3-[[2-(4-morpholinyl)ethyl]amino]-1H-indazol-5-yl]-3,5-pyridinedicarbonitrile] belongs below 0.1 µM; to `CC1=C(C#N)C(c2ccc3[nH]nc(NCc4ccc(N)cc4)c3c2)C(C#N)=C(C)N1` [compound 128, 4-[3-[[(4-aminophenyl)methyl]amino]-1H-indazol-5-yl]-1,4-dihydro-2,6-dimethyl-3,5-pyridinedicarbonitrile], below 0.1 µM. In the case of `COC(=O)c1cccc(C2C(C#N)=C(C)NC(c3cccc([N+](=O)[O-])c3)=C2C#N)c1` (centres unmarked) [compound 232, 3-[3,5-dicyano-1,4-dihydro-2-methyl-6-(3-nitrophenyl)-4-pyridinyl]-benzoic acid, methyl ester], the IC50 was in the range of 0.5 to 2.5 µM. Turning to `CC1=C(C#N)C(c2cccc(NC(=O)c3cnc[nH]3)c2)C(C#N)=C(C)N1` [compound 66, N-[3-(3,5-dicyano-1,4-dihydro-2,6-dimethyl-4-pyridinyl)phenyl]-1H-imidazole-5-carboxamide], the IC50 lay in the range of 0.1 to 0.5 µM. Turning to `CC1=C(C#N)C(c2ccc3[nH]nc(C(=O)NCCC4CCCN4C)c3c2)C(C#N)=C(C)N1` (centres unmarked) [compound 125, 5-(3,5-dicyano-1,4-dihydro-2,6-dimethyl-4-pyridinyl)-N-[2-(1-methyl-2-pyrrolidinyl)ethyl]-1H-indazole-3-carboxamide], the IC50 was below 0.1 µM. On to `CC1=C(C#N)C(c2ccc3[nH]nc(-c4ccc(N5CCN(C)CC5)nc4)c3c2)C(C#N)=C(C)N1` [compound 137, 1,4-dihydro-2,6-dimethyl-4-[3-[6-(4-methyl-1-piperazinyl)-3-pyridinyl]-1H-indazol-5-yl]-3,5-pyridinedicarbonitrile], for which the IC50 is below 0.1 µM. Regarding `CC1=C(C#N)C(c2cccc(NC(=O)c3ccccn3)c2)C(C#N)=C(C)N1` [compound 58, N-[3-(3,5-dicyano-1,4-dihydro-2,6-dimethyl-4-pyridinyl)phenyl]-2-pyridinecarboxamide], the IC50 was 0.1 to 0.5 µM. Turning to `CC1=C(C#N)C(c2ccc3[nH]nc(NCc4cnc[nH]4)c3c2)C(C#N)=C(C)N1` [compound 150, 1,4-dihydro-4-[3-[(1H-imidazol-4-ylmethyl)amino]-1H-indazol-5-yl]-2,6-dimethyl-3,5-pyridinedicarbonitrile], the IC50 is below 0.1 µM. As to `CCOC(=O)C1=C(C#N)C(c2ccc3[nH]ncc3c2)C(C#N)=C(C)N1` (centres unmarked) [compound 268, 3,5-dicyano-1,4-dihydro-4-(1H-indazol-5-yl)-6-methyl-2-pyridinecarboxylic acid ethyl ester], the IC50 is below 0.1 µM. Consider `CC1=C(C#N)C(c2ccc3[nH]nc(C)c3c2)C(C#N)=C(C)N1C` [compound 306, 1,4-dihydro-1,2,6-trimethyl-4-(3-methyl-1H-indazol-5-yl)-3,5-pyridinedicarbonitrile], for which the half-maximal inhibitory concentration (IC50) was below 0.1 µM. For `CC1=C(C#N)C(c2ccc3[nH]nc(CN4CCOCC4)c3c2)C(C#N)=C(C)N1` [compound 83, 1,4-dihydro-2,6-dimethyl-4-[3-(4-morpholinylmethyl)-1H-indazol-5-yl]-3,5-pyridinedicarbonitrile], the IC50 lay in the range of 0.5 to 2.5 µM. As to `CC(=O)Nc1cccc(C2C(C#N)=C(C)NC(C)=C2C#N)c1` [compound 27, N-[3-(3,5-dicyano-1,4-dihydro-2,6-dimethyl-4-pyridinyl)phenyl]-acetamide], the IC50 lay in the range of 0.5 to 2.5 µM. For `COC(=O)c1cccc(C2C(C#N)=C(C)N(C)C(C)=C2C#N)c1` [compound 284, 3-(3,5-dicyano-1,4-dihydro-1,2,6-trimethyl-4-pyridinyl)-benzoic acid, methyl ester], the IC50 lay in the range of 0.5 to 2.5 µM.

For `COC(=O)c1cccc(C2C(C#N)=C(C)NC(c3ccc([N+](=O)[O-])cc3)=C2C#N)c1` (centres unmarked) [compound 233, 3-[3,5-dicyano-1,4-dihydro-2-methyl-6-(4-nitrophenyl)-4-pyridinyl]-benzoic acid, methyl ester], the IC50 is 0.5 to 2.5 µM. On to `CC1=C(C#N)C(c2ccc3c(c2)c(NCCO)nn3C(=O)OC(C)(C)C)C(C#N)=C(C)N1` [compound 119, 5-(3,5-dicyano-1,4-dihydro-2,6-dimethyl-4-pyridinyl)-3-[(2-hydroxyethyl)-amino]-1H-indazole-1-carboxylic acid, 1,1-dimethylethyl ester], for which the IC50 was below 0.1 µM. With `COC(=O)c1ccc(CNc2n[nH]c3ccc(C4C(C#N)=C(C)NC(C)=C4C#N)cc23)cc1` [compound 135, 4-[[[5-(3,5-dicyano-1,4-dihydro-2,6-dimethyl-4-pyridinyl)-1H-indazol-3-yl]-amino]methyl]-benzoic acid methyl ester] the figure was below 0.1 µM.

Take `CC1=C(C#N)C(c2ccc3[nH]nc(N)c3c2)C(C#N)=C(C)N1` [compound 82, 4-(3-amino-1H-indazol-5-yl)-1,4-dihydro-2,6-dimethyl-3,5-pyridinedicarbonitrile]: the IC50 was below 0.1 µM.

Consider `CC(=O)Nc1cccc(C2=C(C#N)C(c3ccc4[nH]ncc4c3)C(C#N)=C(C)N2)c1` (centres unmarked) [compound 253, N-[3-[3,5-dicyano-1,4-dihydro-4-(1H-indazol-5-yl)-6-methyl-2-pyridinyl]-phenyl]-acetamide], for which the IC50 was below 0.1 µM. For `CC1=C(C#N)C(c2ccc3[nH]nc(NC(=O)c4ccccc4)c3c2)C(C#N)=C(C)N1` [compound 129, N-[5-(3,5-dicyano-1,4-dihydro-2,6-dimethyl-4-pyridinyl)-1H-indazol-3-yl]-benzamide], the IC50 was below 0.1 µM. With `CC1=C(C#N)C(c2ccc3[nH]ncc3c2)C(C#N)=C(c2ccc(NCCN3CCOCC3)nc2)N1` (centres unmarked) [compound 274, 1,4-dihydro-4-(1H-indazol-5-yl)-6-methyl-6′-[[2-(4-morpholinyl)ethyl]amino]-[2,3′-bipyridine]-3,5-dicarbonitrile] the figure was below 0.1 µM. In the case of `CNC(=O)c1cccc(C2C(C#N)=C(C)NC(C)=C2C#N)n1` [compound 189, 3′,5′-dicyano-1′,4′-dihydro-N,2′,6′-trimethyl-[2,4′-bipyridine]-6-carboxamide], the IC50 was in the range of 0.5 to 2.5 µM. `C#CCN1C(C)=C(C#N)C(c2ccc3[nH]ncc3c2)C(C#N)=C1C` [compound 302, 1,4-dihydro-4-(1H-indazol-5-yl)-2,6-dimethyl-1-(2-propynyl)-3,5-pyridinedicarbonitrile]: the IC50 was below 0.1 µM.

With `CC1=C(C#N)C(c2ccc3[nH]nc(-c4cccnc4)c3c2)C(C#N)=C(C)N1` [compound 87, 1,4-dihydro-2,6-dimethyl-4-[3-(3-pyridinyl)-1H-indazol-5-yl]-3,5-pyridinedicarbonitrile], the IC50 is below 0.1 µM. Consider `CC1=C(C#N)C(c2cccc(NC(=O)CBr)c2)C(C#N)=C(C)N1` [compound 47, 2-bromo-N-[3-(3,5-dicyano-1,4-dihydro-2,6-dimethyl-4-pyridinyl)phenyl]-acetamide], for which the IC50 fell in the range of 0.5 to 2.5 µM. For the compound `CC1=C(C#N)C(c2ccc3[nH]nc(C(=O)N(C)C)c3c2)C(C#N)=C(C)N1` [114.1, 5-(3,5-dicyano-2,6-dimethyl-1,4-dihydro-pyridin-4-yl)-1H-indazole-3-carboxylic acid dimethylamide, TFA salt], the half-maximal inhibitory concentration (IC50) is below 0.1 µM. On to `CC1=C(C#N)C(c2ccc3[nH]nc(/C=N/O)c3c2)C(C#N)=C(C)N1` [compound 149, 1,4-dihydro-4-[3-[(E)-(hydroxyimino)methyl]-1H-indazol-5-yl]-2,6-dimethyl-3,5-pyridinedicarbonitrile], for which the IC50 is below 0.1 µM. Regarding `COC(=O)Nc1cccc(C2C(C#N)=C(C)NC(C)=C2C#N)c1` [compound 34, [3-(3,5-dicyano-1,4-dihydro-2,6-dimethyl-4-pyridinyl)phenyl]-carbamic acid, methyl ester], the half-inhibitory concentration (IC50) lay in the range of 0.5 to 2.5 µM.

The values above are taken from patent US8198456B2, “Dihydropyridine derivatives as useful as protein kinase inhibitors” (Bayer Intellectual Property GmbH, priority 2006, dated 2012).
